Results from the NIST ThermoML archive (doi:10.1016/j.jct.2015.08.027).
Numbers after ± are expanded uncertainties.

Key:
[1] = 101.33 kPa, Liquid, Vibrating tube method
[2] = refractive index (Na D-line) (dimensionless); conditions: 101.33 kPa, Liquid, Standard Abbe refractometry
[3] = refractive index (Na D-line) (dimensionless); wn = mass fraction of the nth substance listed; conditions: 81.5 kPa, Liquid, Standard Abbe refractometry

| Compound | mass density ([1]; 293.2 K) [kg/m3] | mass density ([1]; 298.2 K) [kg/m3] | mass density ([1]; 303.2 K) [kg/m3] | refractive index ([2]; 293.2 K) | refractive index ([2]; 298.2 K) | refractive index ([2]; 303.2 K) | refractive index ([3]; 293.2 K, w2 = 0.0142) | refractive index ([3]; 293.2 K, w2 = 0.993) | refractive index ([3]; 298.2 K, w2 = 0.0161) | refractive index ([3]; 298.2 K, w2 = 0.9924) | refractive index ([3]; 303.2 K, w2 = 0.0164) | refractive index ([3]; 303.2 K, w2 = 0.9914) |
| --- | --- | --- | --- | --- | --- | --- | --- | --- | --- | --- | --- | --- |
| CCCCCCn1cc[n+](C)c1.F[P-](F)(F)(F)(F)F [1-hexyl-3-methylimidazolium hexafluorophosphate] | 1294.91 ± 2.6 | 1290.88 ± 2.6 | 1286.85 ± 2.6 | 1.4176 ± 0.00053 | 1.4164 ± 0.00053 | 1.41515 ± 0.00053 | – | – | – | – | – | – |
| CCCCCCn1cc[n+](C)c1.F[P-](F)(F)(F)(F)F [1-hexyl-3-methylimidazolium hexafluorophosphate] + O | – | – | – | – | – | – | 1.4164 ± 0.001 | 1.3334 ± 0.00077 | 1.41525 ± 0.00099 | 1.3332 ± 0.0008 | 1.4135 ± 0.00098 | 1.33345 ± 0.00086 |
| CC(C)=O [acetone] | 790.66 ± 1.6 | 784.4 ± 1.6 | 778.7 ± 1.6 | 1.3588 ± 0.00051 | 1.35575 ± 0.00051 | 1.35265 ± 0.00051 | – | – | – | – | – | – |
| O [water] | – | – | – | 1.33305 ± 0.00049 | 1.3325 ± 0.00049 | 1.33195 ± 0.00049 | – | – | – | – | – | – |
